Target: T1, human TRPM5 ion channel (Homo sapiens, UniProt Q9NZQ8)
T1 sequence (Q9NZQ8 1-1165): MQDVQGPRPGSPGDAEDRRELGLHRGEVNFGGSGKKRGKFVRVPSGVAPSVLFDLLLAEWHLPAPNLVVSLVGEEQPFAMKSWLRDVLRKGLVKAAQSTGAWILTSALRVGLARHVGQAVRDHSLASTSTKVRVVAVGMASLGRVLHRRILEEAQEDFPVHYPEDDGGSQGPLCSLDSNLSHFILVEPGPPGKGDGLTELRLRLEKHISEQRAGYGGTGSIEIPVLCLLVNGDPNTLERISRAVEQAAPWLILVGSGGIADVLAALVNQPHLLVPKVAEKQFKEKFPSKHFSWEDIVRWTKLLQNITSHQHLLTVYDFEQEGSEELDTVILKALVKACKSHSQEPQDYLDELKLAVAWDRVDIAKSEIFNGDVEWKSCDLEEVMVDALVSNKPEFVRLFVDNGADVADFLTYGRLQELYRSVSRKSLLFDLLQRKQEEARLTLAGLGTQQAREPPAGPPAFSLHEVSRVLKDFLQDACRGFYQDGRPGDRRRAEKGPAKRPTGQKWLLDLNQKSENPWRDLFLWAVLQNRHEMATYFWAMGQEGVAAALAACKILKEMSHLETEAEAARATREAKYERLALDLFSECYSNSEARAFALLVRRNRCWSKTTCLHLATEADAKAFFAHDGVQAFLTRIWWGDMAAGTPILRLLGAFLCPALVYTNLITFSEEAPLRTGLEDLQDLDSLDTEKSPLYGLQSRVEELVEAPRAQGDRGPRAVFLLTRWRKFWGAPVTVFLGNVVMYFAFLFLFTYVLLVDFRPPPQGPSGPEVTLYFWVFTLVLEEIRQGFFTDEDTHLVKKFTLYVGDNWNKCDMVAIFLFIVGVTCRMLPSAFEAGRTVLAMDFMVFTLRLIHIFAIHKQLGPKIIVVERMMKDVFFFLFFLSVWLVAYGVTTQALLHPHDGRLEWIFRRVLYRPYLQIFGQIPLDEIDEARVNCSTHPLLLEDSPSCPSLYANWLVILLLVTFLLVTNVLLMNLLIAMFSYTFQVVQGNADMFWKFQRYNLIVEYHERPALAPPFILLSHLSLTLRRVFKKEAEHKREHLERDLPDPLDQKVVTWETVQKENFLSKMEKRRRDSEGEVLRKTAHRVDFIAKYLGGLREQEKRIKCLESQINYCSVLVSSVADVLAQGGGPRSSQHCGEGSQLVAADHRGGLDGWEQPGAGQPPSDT
Test: FLIPR-based assay for membrane potential and calcium mobilization (TRPM5 inhibiting activity)
Assay type: cell-based
Conditions: live cells, 30° C., read-out: hTrpM5 IC50
How it was run: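 Live cells expressing human TRPM5, assayed at 30 °C by FLIPR readout of membrane potential and calcium mobilization. Ten serial 2- or 3-fold dilutions from no more than 100 μM. IC50 derived by curve fitting of concentration-effect data.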

Cc1cc(/C=N/NC(=O)C2CC2c2ccccc2)cc2cccnc12 (racemic) [Example 10, trans-N′-((8-Methylquinolin-6-yl)methylene)-2-phenylcyclopropanecarbohydrazide]
IC50: 420 nM

Source: patent US20110033393A1, “Hydrazone Compounds and Their Use” (priority 2009, published 2011)
